Test results taken from patent US11912693B2, “Compounds for modulating S1P1 activity and methods of using the same” (TREVENA, INC., priority 2017, dated 2024).

Tests used:
[1] = target: T1, human sphingosine-1-phosphate receptor 1 (S1P1) (Homo sapiens (Human), UniProt P21453); experiment: Inhibition of cAMP production (HTRF cAMP HiRange), S1P1 CHO-K1 cells; format: cell-based; conditions: for hS1P1 cAMP pEC50: inhibition of cAMP production, S1P1 CHO-K1 cells
In short: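 CHO-K1 cells stably co-expressing human S1P1 (C-terminal Prolink tag) and EA-β-arrestin2 were grown in AssayComplete Media 6 at 37° C. and 5% CO2, plated, and incubated overnight. Agonist-driven inhibition of intracellular cAMP was read by TR-FRET with the HTRF cAMP HiRange kit on a PheraStar reader. Potency is pEC50, and efficacy (SPAN) is normalized to fingolimod.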
Target sequence in this assay (P21453 whole entry, looked up): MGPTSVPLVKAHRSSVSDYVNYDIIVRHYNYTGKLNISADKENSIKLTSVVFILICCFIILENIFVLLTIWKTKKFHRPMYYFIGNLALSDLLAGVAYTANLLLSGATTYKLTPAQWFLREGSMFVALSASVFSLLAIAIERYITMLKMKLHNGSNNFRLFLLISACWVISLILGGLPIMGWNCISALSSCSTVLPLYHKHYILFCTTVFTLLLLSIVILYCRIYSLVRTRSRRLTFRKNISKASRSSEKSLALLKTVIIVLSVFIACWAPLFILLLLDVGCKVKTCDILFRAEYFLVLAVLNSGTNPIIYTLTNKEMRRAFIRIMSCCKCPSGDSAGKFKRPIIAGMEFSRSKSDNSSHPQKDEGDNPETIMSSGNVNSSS

[2] = target: T1, human sphingosine-1-phosphate receptor 1 (S1P1); experiment: β-Arrestin2 recruitment assay (PathHunter), S1P1 CHO-K1 cells; format: cell-based; conditions: for hS1P1 B-arrestin2 pEC50: β-arrestin2 recruitment, S1P1 CHO-K1 cells
In short: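 Enzyme-fragment complementation read-out: agonist-driven β-arrestin2 binding to ProLink-tagged human S1P1 in stable CHO-K1 cells restores β-galactosidase, measured 1 h at room temperature after a 60 min 37° C. compound incubation. Potency as pEC50, efficacy relative to fingolimod (SPAN).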
Target sequence in this assay (P21453 whole entry, looked up): as above
Target sequence in this assay (P32121 whole entry partner, looked up): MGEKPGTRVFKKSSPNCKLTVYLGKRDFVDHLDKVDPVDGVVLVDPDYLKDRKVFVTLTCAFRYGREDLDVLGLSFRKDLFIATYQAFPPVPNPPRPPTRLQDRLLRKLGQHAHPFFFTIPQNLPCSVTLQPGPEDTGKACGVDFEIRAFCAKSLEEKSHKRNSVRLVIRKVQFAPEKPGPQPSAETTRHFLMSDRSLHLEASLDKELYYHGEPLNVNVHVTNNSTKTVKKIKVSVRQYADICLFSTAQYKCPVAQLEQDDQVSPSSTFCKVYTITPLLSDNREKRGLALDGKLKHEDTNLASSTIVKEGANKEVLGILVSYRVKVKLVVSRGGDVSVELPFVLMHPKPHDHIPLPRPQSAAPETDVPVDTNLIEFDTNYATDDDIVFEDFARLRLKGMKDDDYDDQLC

[3] = system: paclitaxel induced peripheral neuropathy; experiment: Reversal of allodynia induced by paclitaxel in mice (s.c. or p.o., von Frey frequency method); format: in vivo, c57bl/6 mice; conditions: Mus musculus, po, 1 h, 3 mg/kg p.o., tested 60 min after dosing, read-out: Screen @ 3 mg/kg po (% MPE)
Method: Compounds were tested for efficacy in mouse models of chemotherapy induced peripheral neuropathy. […] For these studies […]/6 mice are habituated to the test environment and baseline measurements of pain sensitivity are assessed. To determine mechanical responses, the threshold for responses to punctate mechanical stimuli (mechanical hyperalgesia) was tested according to the frequency method. In brief, the plantar surface of the animal hindpaw was stimulated with a single von Frey monofilament (0.4 g) for approximately 1-2 seconds. If there was a withdrawal response, it was recorded as a positive response. A response was defined as a lifting or shaking of the paw upon stimulation. This was repeated ten times for each mouse. The final measurement for each mouse is the % non-response to stimulation for the ten trials. The % non-response to stimulation is converted to a % MPE. For paclitaxel induced peripheral neuropathy, a series of injections of PAC (6 mg/kg, i.p.) on days 1, 3, 5 and 7 is used to induce peripheral neuropathy. After approximately 14 days from the initiation of PAC injections, animals are re-assessed for mechanical sensitivity. […] On test day animals are dosed with compounds either subcutaneously or orally and tested for mechanical response by the frequency method either 30 min (s.c.) or 60 min (p.o.) after drug administration. Data is presented as a % MPE. For oxaliplatin induced peripheral neuropathy, a series of injections of OXA (4 mg/kg, i.p.) on days 1-5 is used to induce peripheral neuropathy. After approximately 14 days from the initiation of PAC injections, animals are re-assessed for mechanical sensitivity. […] On test day animals are dosed with compounds subcutaneously and tested for mechanical response by the frequency method 30 min after drug administration. Data is presented as a % MPE. One or more of the compounds show reversal of chemotherapeutic induced peripheral neuropathy.

With CCC1(CC)CC(=O)c2cc(-c3nc(-c4cccnc4F)no3)ccc2O1 [Compound 547, 2,2-diethyl-6-(3-(2-fluoropyridin-3-yl)-1,2,4-oxadiazol-5-yl)chroman-4-one] the “hS1P1 cAMP pEC50” value [1] was over 6.5, the “hS1P1 B-arrestin2 pEC50” value [2] was over 5 and the inhibition in vivo at 3 mg/kg [3] was over 50%.

In the case of CCC1(CC)CC(=O)c2cc(-c3nc(-c4cnccc4C(F)(F)F)no3)ccc2O1 [Compound 558, 2,2-diethyl-6-(3-(4-(trifluoromethyl)pyridin-3-yl)-1,2,4-oxadiazol-5-yl)chroman-4-one], the “hS1P1 cAMP pEC50” value [1] was over 6.5, the “hS1P1 B-arrestin2 pEC50” value [2] was over 5 and the inhibition in vivo at 3 mg/kg [3] was over 50%.

For Cc1nc2cc(-c3nnc(-c4ccc(NC(C)C)c(C#N)c4)o3)ccc2[nH]1 [Compound 560, 5-[5-(2-methyl-1H-1,3-benzodiazol-5-yl)-1,3,4-oxadiazol-2-yl]-2-[(propan-2-yl)amino]benzonitrile], the “hS1P1 cAMP pEC50” value [1] was over 6.5, the “hS1P1 B-arrestin2 pEC50” value [2] was over 5 and the inhibition in vivo at 3 mg/kg [3] was over 50%.

With CCC1(CC)CC(=O)c2cc(-c3nc(-c4cccnc4C(F)(F)F)no3)ccc2O1 [Compound 562, 2,2-diethyl-6-(3-(2-(trifluoromethyl)pyridin-3-yl)-1,2,4-oxadiazol-5-yl)chroman-4-one] the “hS1P1 cAMP pEC50” value [1] was over 6.5, the “hS1P1 B-arrestin2 pEC50” value [2] was over 5 and the inhibition in vivo at 3 mg/kg [3] was over 50%.

In the case of CCC1(CC)CC(=O)c2cc(-c3nc(-c4cncc(C)c4)no3)ccc2O1 [Compound 563, 2,2-diethyl-6-(3-(5-methylpyridin-3-yl)-1,2,4-oxadiazol-5-yl)chroman-4-one], the “hS1P1 cAMP pEC50” value [1] was over 6.5, the “hS1P1 B-arrestin2 pEC50” value [2] was over 5 and the inhibition in vivo at 3 mg/kg [3] was under 50%.

For CCC1(CC)CC(=O)c2cc(-c3nc(-c4cccnc4C)no3)ccc2O1 [Compound 564, 2,2-diethyl-6-(3-(2-methylpyridin-3-yl)-1,2,4-oxadiazol-5-yl)chroman-4-one], the “hS1P1 cAMP pEC50” value [1] was over 6.5, the “hS1P1 B-arrestin2 pEC50” value [2] was over 5 and the inhibition in vivo at 3 mg/kg [3] was over 50%.

CCC1(CC)CC(=O)c2cc(-c3nc(-c4ccc(NS(C)(=O)=O)cc4OC)no3)ccc2O1 [Compound 568, N-{4-[5-(2,2-diethyl-4-oxo-3,4-dihydro-2H-1-benzopyran-6-yl)-1,2,4-oxadiazol-3-yl]-3-methoxyphenyl}methanesulfonamide] was tested, and the “hS1P1 cAMP pEC50” value [1] was over 6.5, the “hS1P1 B-arrestin2 pEC50” value [2] was over 5 and the inhibition in vivo at 3 mg/kg [3] was under 50%.

For CC(C)Nc1ccc(-c2nnc(-c3ccc4ncn(C)c4c3)o2)cc1C#N [Compound 579, 5-[5-(1-methyl-1H-1,3-benzodiazol-6-yl)-1,3,4-oxadiazol-2-yl]-2-[(propan-2-yl)amino]benzonitrile], the “hS1P1 cAMP pEC50” value [1] was over 6.5, the “hS1P1 B-arrestin2 pEC50” value [2] was over 5 and the inhibition in vivo at 3 mg/kg [3] was over 50%.

In the case of Cn1cnc2ccc(-c3nnc(-c4ccc(NCC(F)F)c(C#N)c4)o3)cc21 [Compound 580, 2-[(2,2-difluoroethyl)amino]-5-[5-(1-methyl-1H-1,3-benzodiazol-6-yl)-1,3,4-oxadiazol-2-yl]benzonitrile], the “hS1P1 cAMP pEC50” value [1] was over 6.5, the “hS1P1 B-arrestin2 pEC50” value [2] was over 5 and the inhibition in vivo at 3 mg/kg [3] was over 50%.

With CCC1(CC)CC(=O)c2cc(-c3nc(-c4ccc(NC(C)=O)cc4OC(F)(F)F)no3)ccc2O1 [Compound 584, N-{4-[5-(2,2-diethyl-4-oxo-3,4-dihydro-2H-1-benzopyran-6-yl)-1,2,4-oxadiazol-3-yl]-3-(trifluoromethoxy)phenyl}acetamide] the Emax ([1]; CHO-K1, efficacy (SPAN) normalized to fingolimod, read-out: hS1P1 cAMP SPAN) was over 75%, the “hS1P1 cAMP pEC50” value [1] was over 6.5 and the Emax ([2]; CHO-K1, efficacy (SPAN) normalized to fingolimod, read-out: hS1P1 B-arrestin2 SPAN) was over 75%. For the same compound, the “hS1P1 B-arrestin2 pEC50” value [2] was over 5 and the inhibition in vivo at 3 mg/kg [3] was over 50%.

For CC(C)Nc1ccc(-c2nnc(-c3cccc4[nH]cnc34)o2)cc1C#N [Compound 585, 5-[5-(1H-1,3-benzodiazol-4-yl)-1,3,4-oxadiazol-2-yl]-2-[(propan-2-yl)amino]benzonitrile], the “hS1P1 cAMP pEC50” value [1] was over 6.5, the “hS1P1 B-arrestin2 pEC50” value [2] was over 5 and the inhibition in vivo at 3 mg/kg [3] was under 50%.
